Reference: patent US12172995B2, “Substituted indole and indazole compounds” (BRISTOL-MYERS SQUIBB COMPANY, priority 2018, dated 2024)
pIC50: −log10 of the molar value.

Columns and labels:
Type in all cases: cell-based
human TLR8 = target: T1, human TLR8 (Homo sapiens, UniProt Q9NR97); test: TLR8 inhibition reporter assay (HEK-Blue SEAP); details: HEK-Blue cells overexpressing human TLR8, stimulated with R848 15.9 μM, 22 hour incubation
T1 construct: host or cells: HEK-Blue cells
T1 sequence (Q9NR97 27-1041): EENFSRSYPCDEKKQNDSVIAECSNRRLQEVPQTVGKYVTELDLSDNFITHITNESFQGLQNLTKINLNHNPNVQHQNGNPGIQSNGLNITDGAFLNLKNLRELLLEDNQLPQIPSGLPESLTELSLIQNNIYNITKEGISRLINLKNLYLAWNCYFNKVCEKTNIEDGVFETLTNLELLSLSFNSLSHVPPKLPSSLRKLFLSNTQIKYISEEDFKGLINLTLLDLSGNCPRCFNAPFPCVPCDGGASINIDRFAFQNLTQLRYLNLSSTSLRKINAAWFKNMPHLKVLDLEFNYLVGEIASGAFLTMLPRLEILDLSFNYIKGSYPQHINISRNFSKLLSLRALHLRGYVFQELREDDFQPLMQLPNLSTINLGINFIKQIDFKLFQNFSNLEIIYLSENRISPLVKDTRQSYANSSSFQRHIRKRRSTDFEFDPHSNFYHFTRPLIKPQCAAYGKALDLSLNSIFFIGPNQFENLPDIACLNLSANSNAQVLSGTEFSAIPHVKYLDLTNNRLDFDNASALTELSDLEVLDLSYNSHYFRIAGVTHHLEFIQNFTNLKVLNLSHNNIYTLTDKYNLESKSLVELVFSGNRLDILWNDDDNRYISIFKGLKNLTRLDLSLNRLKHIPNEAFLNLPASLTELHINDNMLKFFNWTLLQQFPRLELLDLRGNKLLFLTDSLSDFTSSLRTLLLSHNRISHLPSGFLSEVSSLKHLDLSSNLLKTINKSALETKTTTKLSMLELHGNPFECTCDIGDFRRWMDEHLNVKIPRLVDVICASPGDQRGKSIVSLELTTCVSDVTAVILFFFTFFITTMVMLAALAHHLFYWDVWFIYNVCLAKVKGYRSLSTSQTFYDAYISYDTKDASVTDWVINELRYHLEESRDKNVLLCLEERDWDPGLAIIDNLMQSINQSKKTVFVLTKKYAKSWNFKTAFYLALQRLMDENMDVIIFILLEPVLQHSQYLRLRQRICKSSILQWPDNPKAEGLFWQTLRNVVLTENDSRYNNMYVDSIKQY
Method in brief: (§1)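 HEK-Blue cells overexpressing the receptor, with an NF-κB/AP-1-driven SEAP reporter, were pre-treated with compound (0.05 nM to 50 μM) for 30 min at room temperature. Stimulation used gardiquimod 7.5 μM (TLR7), R848 15.9 μM (TLR8) or ODN2006 5 nM (TLR9), followed by 22 h at 37 °C.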

human TLR7 = target: T2, human TLR7 (Homo sapiens, UniProt Q9NYK1); test: TLR7 inhibition reporter assay (HEK-Blue SEAP); details: HEK-Blue cells overexpressing human TLR7, stimulated with gardiquimod 7.5 μM, 22 hour incubation
T2 construct: host or cells: HEK-Blue cells
T2 sequence (Q9NYK1 27-1049): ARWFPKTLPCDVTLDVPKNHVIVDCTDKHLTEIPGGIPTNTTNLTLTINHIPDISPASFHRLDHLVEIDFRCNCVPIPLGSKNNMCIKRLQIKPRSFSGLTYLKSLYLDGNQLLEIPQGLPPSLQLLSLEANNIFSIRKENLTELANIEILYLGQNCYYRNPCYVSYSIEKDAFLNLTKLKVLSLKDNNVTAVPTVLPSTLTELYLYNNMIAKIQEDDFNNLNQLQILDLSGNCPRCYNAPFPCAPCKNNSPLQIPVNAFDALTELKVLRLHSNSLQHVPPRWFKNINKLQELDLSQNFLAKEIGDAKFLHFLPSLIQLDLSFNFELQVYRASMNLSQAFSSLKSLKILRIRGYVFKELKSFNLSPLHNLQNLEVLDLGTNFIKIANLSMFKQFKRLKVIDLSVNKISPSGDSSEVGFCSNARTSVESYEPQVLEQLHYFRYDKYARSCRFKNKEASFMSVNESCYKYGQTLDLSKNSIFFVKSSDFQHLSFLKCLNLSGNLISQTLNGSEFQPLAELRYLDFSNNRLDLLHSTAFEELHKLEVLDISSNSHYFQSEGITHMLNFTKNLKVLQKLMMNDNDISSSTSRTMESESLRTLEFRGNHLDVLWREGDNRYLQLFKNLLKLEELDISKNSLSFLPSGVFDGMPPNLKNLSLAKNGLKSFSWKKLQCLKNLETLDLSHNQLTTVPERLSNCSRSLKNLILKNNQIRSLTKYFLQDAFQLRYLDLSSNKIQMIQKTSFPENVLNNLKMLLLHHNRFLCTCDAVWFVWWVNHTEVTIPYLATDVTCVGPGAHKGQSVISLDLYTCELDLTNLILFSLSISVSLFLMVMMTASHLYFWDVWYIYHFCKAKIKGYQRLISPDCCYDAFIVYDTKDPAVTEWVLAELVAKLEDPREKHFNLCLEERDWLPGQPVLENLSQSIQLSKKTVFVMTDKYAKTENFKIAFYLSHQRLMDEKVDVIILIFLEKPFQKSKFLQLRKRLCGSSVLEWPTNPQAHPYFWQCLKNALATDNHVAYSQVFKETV
Method in brief: as §1

human TLR9 = target: T3, human TLR9 (Homo sapiens, UniProt Q9NR96); test: TLR9 inhibition reporter assay (HEK-Blue SEAP); details: HEK-Blue cells overexpressing human TLR9, stimulated with ODN2006 5 nM, 22 hour incubation
T3 construct: host or cells: HEK-Blue cells
T3 sequence (Q9NR96 26-1032): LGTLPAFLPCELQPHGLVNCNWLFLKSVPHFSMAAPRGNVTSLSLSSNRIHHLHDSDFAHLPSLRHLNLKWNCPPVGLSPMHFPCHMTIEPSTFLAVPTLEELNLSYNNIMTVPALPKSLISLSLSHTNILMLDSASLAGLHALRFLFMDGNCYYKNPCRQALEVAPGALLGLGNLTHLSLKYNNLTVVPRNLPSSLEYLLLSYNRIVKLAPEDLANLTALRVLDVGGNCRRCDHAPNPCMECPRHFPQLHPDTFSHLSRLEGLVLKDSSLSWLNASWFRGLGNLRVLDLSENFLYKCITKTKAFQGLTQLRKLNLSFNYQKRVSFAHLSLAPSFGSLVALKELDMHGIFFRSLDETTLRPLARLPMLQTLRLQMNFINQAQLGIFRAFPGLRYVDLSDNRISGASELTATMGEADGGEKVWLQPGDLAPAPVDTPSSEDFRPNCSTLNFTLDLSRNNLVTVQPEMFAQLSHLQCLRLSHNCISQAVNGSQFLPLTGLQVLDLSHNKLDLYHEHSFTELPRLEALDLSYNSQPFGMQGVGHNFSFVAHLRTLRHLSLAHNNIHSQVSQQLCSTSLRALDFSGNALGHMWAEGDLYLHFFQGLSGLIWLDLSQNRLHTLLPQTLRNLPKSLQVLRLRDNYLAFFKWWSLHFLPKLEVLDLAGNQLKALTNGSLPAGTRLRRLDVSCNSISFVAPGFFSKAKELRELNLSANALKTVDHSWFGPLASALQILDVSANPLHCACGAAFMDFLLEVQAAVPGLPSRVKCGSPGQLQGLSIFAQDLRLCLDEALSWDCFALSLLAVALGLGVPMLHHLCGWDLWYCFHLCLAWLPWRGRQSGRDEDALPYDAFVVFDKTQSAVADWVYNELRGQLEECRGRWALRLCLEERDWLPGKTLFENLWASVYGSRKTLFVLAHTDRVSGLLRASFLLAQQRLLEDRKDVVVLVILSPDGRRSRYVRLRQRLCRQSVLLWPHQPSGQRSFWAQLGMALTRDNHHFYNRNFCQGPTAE
Method in brief: as §1

| SMILES | pIC50 (human TLR8) | pIC50 (human TLR7) | pIC50 (human TLR9) |
| --- | --- | --- | --- |
| Cc1cc(-c2cc3[nH]nc(C4CCC(N5CCC6(CCOC6)C5)CC4)c3cc2C(C)C)cn2ncnc12 (single isomer, unassigned) [Example 210, 7-(4-(5-isopropyl-6-(8-methyl-[1,2,4]triazolo[1,5-a]pyridin-6-yl)-1H-indazol-3-yl)cyclohexyl)-2-oxa-7-azaspiro[4.4]nonane] | 9.43 | 8.68 | 5.23 |
| Cc1cc(-c2cc3[nH]nc(C4CCC(N5CCC(S(C)(=O)=O)C5)CC4)c3cc2C(C)C)cn2ncnc12 (single isomer, unassigned) [Example 211, 6-(5-isopropyl-3-(4-(3-(methylsulfonyl)pyrrolidin-1-yl)cyclohexyl)-1H-indazol-6-yl)-8-methyl-[1,2,4]triazolo[1,5-a]pyridine] | 9.82 | 8.60 | 4.49 |
| Cc1cc(-c2cc3[nH]nc(C4CCC(N5CCC(S(C)(=O)=O)C5)CC4)c3cc2C(C)C)cn2ncnc12 (single isomer, unassigned) [Example 212, 6-(5-isopropyl-3-(4-(3-(methylsulfonyl)pyrrolidin-1-yl)cyclohexyl)-1H-indazol-6-yl)-8-methyl-[1,2,4]triazolo[1,5-a]pyridine] | 9.44 | 8.09 | 4.62 |
| Cc1cc2c(C3CCNCC3)c[nH]c2cc1-c1cc(C)c2ncnn2c1 [Example 1, 8-methyl-6-(5-methyl-3-(piperidin-4-yl)-1H-indol-6-yl)-[1,2,4]triazolo[1,5-a]pyridine] | 8.41 | 8.39 | 6.18 |
| Cc1cc(-c2cc(C)c3ncnn3c2)cc2[nH]cc(C3CCNCC3)c12 [Example 2, 8-methyl-6-(4-methyl-3-(piperidin-4-yl)-1H-indol-6-yl)-[1,2,4]triazolo[1,5-a]pyridine] | 7.70 | 9.05 | 5.98 |
| Cc1cc2c(CC3CCNCC3)n[nH]c2cc1-c1cc(C)c2ncnn2c1 [Example 10, 8-methyl-6-(5-methyl-3-(piperidin-4-ylmethyl)-1H-indazol-6-yl)-[1,2,4]triazolo[1,5-a]pyridine] | 8.42 | 7.16 | 6.00 |
| Cc1cc(-c2ccc3c(CCNC4CCNCC4)c[nH]c3c2)cn2ncnc12 [Example 13, N-(2-(6-(8-methyl-[1,2,4]triazolo[1,5-a]pyridin-6-yl)-1H-indol-3-yl)ethyl)piperidin-4-amine] | 6.57 | 5.77 | 6.22 |

More lines, in order of rising pIC50 (human TLR8), values ahead:

| pIC50 (human TLR8) | pIC50 (human TLR7) | pIC50 (human TLR9) | SMILES |
| --- | --- | --- | --- |
| 6.48 | 6.41 | 5.50 | Cc1cc(-c2ccc3c(C4CCNCC4)n[nH]c3c2)cn2ncnc12 [Example 17, 8-methyl-6-(3-(piperidin-4-yl)-1H-indazol-6-yl)-[1,2,4]triazolo[1,5-a]pyridine] |
| 6.61 | 7.19 | 6.44 | COc1cc(-c2ccc3c(C4CCNCC4)c[nH]c3c2)cn2ncnc12 [Example 11, 8-methoxy-6-(3-(piperidin-4-yl)-1H-indol-6-yl)-[1,2,4]triazolo[1,5-a]pyridine] |
| 7.45 | 8.48 | 5.85 | Cc1cc(-c2cc(C)c3ncnn3c2)cc2[nH]cc(C3CCNCC3)c12 [Example 16, 8-methyl-6-(4-methyl-3-(piperidin-4-yl)-1H-indol-6-yl)-[1,2,4]triazolo[1,5-a]pyridine] |
| 7.51 | 7.77 | 6.72 | Cc1cc(-c2ccc3c(C4CCNCC4)c[nH]c3c2)cn2ncnc12 [Example 12, 8-methyl-6-(3-(piperidin-4-yl)-1H-indol-6-yl)-[1,2,4]triazolo[1,5-a]pyridine] |
| 7.87 | 8.31 | 5.81 | Cc1cc(-c2cc(C)c3ncnn3c2)cc2[nH]nc(C3CCCN(C(=O)CN(C)C)C3)c12 (stereo not drawn) [Example 5, 2-(dimethylamino)-1-(3-(4-methyl-6-(8-methyl-[1,2,4]triazolo[1,5-a]pyridin-6-yl)-1H-indazol-3-yl)piperidin-1-yl)ethan-1-one] |
| 8.35 | 8.40 | 5.22 | CCc1cc(-c2cc(C)c3ncnn3c2)cc2[nH]nc(C3CCN(CC(=O)N(C)C)CC3)c12 [Example 8, 2-(4-(4-ethyl-6-(8-methyl-[1,2,4]triazolo[1,5-a]pyridin-6-yl)-1H-indazol-3-yl)piperidin-1-yl)-N,N-dimethylacetamide] |
| 8.48 | 7.89 | 5.82 | Cc1cc2c(C3CCNCC3)n[nH]c2cc1-c1cc(C)c2ncnn2c1 [Example 18, 8-methyl-6-(5-methyl-3-(piperidin-4-yl)-1H-indazol-6-yl)-[1,2,4]triazolo[1,5-a]pyridine] |
| 10.00 | 9.30 | 5.21 | CCCN1CCC(c2n[nH]c3cc(-c4cc(C)c5ncnn5c4)c(C(C)C)cc23)CC1 [Example 9, 6-(5-isopropyl-3-(1-propylpiperidin-4-yl)-1H-indazol-6-yl)-8-methyl-[1,2,4]triazolo[1,5-a] pyridine] |
